According to US20180099931A1 (AbbVie S.à.r.l., priority 2016, published 2018):
Where two headings read alike, the source gives them in different places. Values belong to the compound of their own block, whether it stands above or below them.

Molecular target: T1, F508delCFTR (Homo sapiens, UniProt P13569, DEL508-508)
T1 construct: expressed in transfected cells; host or cells: CFBE41o- human lung-derived epithelial cells (CFBE4lo-F508delCFTR-HRP), doxycycline-inducible
Experiment: Cell Surface Expression-Horse Radish Peroxidase (CSE-HRP) Assay;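 as to Maximum % activity (with co-corrector): co-corrector and positive control are both the same reference corrector at 2 µM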;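 as to Maximum % activity (without co-corrector): percent of the 2 µM on-plate positive control corrector response above DMSO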
Assay type: cell-based
Conditions: for Maximum % activity (with co-corrector) / Emax: maximum at any tested concentration, normalized to on-plate positive control; for Emax: read-out: Maximum % activity (without co-corrector)

[1] = CSE-HRP, test compound without co-corrector, read-out: EC50 (without co-corrector)
[2] = CSE-HRP, with co-corrector (2 μM of 3-[(2R,4R)-4-({[1-(2,2-difluoro-1,3-benzodioxol-5-yl)cyclopropyl]carbonyl}amino)-7-methoxy-3,4-dihydro-2H-chromen-2-yl]benzoic acid), read-out: EC50 (with co-corrector)
[3] = CSE-HRP, with co-corrector (2 μM)
[4] = test compound without co-corrector
[5] = test compound without co-corrector, read-out: EC50 (without co-corrector)
[6] = with co-corrector (2 μM of 3-[(2R,4R)-4-({[1-(2,2-difluoro-1,3-benzodioxol-5-yl)cyclopropyl]carbonyl}amino)-7-methoxy-3,4-dihydro-2H-chromen-2-yl]benzoic acid)
[7] = with co-corrector (2 μM of 3-[(2R,4R)-4-({[1-(2,2-difluoro-1,3-benzodioxol-5-yl)cyclopropyl]carbonyl}amino)-7-methoxy-3,4-dihydro-2H-chromen-2-yl]benzoic acid), read-out: EC50 (with co-corrector)

T1 sequence (P13569 with tags, fused parts or gaps DEL508-508): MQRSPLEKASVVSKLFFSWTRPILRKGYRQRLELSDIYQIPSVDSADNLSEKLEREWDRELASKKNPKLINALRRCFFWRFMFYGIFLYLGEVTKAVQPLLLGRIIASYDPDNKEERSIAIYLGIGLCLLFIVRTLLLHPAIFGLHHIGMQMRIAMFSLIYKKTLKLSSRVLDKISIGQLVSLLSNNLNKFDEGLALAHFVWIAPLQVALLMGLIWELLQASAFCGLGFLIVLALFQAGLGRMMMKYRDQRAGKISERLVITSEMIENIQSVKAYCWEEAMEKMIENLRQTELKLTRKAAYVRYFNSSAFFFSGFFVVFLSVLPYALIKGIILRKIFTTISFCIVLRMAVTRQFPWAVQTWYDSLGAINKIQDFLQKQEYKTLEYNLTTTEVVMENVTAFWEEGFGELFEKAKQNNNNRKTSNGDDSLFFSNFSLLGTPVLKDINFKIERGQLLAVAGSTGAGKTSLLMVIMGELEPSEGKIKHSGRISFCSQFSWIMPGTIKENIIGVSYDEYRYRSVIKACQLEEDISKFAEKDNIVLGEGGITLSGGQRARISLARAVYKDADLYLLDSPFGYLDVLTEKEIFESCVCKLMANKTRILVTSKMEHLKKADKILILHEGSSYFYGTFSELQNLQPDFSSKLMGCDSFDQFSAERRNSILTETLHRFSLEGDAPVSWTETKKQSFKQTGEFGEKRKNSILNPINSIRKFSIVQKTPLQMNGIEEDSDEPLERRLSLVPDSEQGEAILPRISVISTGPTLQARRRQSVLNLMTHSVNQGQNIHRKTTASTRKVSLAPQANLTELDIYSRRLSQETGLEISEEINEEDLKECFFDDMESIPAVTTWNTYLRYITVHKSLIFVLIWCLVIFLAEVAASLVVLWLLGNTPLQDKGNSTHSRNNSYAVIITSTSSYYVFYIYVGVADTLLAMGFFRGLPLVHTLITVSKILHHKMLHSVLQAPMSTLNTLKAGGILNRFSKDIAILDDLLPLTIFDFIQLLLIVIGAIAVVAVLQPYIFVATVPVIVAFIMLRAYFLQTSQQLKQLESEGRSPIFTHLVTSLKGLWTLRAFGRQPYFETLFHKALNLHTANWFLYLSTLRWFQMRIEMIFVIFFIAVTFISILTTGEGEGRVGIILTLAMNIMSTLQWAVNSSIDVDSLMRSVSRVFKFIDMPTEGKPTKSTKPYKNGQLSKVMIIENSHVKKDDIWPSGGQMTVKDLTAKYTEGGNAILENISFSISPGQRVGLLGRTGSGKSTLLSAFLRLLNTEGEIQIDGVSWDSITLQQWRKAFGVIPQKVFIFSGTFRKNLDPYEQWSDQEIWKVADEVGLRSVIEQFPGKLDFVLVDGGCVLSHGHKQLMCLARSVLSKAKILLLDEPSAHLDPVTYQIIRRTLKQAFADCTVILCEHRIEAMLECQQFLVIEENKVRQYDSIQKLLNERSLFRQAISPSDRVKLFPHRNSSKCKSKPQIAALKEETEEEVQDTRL

SMILES: COc1ccc(C(C)(C)C)cc1CN[C@H]1[C@H](C(C)(C)C)[C@@H](C(=O)O)N(C(=O)[C@@H](C)OC)[C@H]1c1ccccc1 [II-311]
- EC50 [1]: 1000 to 10000 nM
- EC50 [2]: 1000 to 10000 nM
- Maximum % activity (with co-corrector) [3]: +++ (≥350)
- Emax (CSE-HRP, without co-corrector): > 200%

SMILES: COc1ccc(C(C)(C)C)cc1CN[C@H]1[C@H](C(C)(C)C)[C@@H](C(=O)O)N(C(=O)C(C)Oc2ccccc2Cl)[C@H]1c1ccccc1 (stereo partly shown) [II-312]
- EC50 [1]: < 1000 nM
- EC50 [2]: < 1000 nM
- Maximum % activity (with co-corrector) [3]: +++ (≥350)
- Emax (CSE-HRP, without co-corrector): 100 to 200%

SMILES: COc1ccc(C(C)(C)C)cc1CN[C@H]1[C@H](C(C)(C)C)[C@@H](C(=O)O)N(C(=O)C2CCC2)[C@H]1c1ccccc1 [II-313]
- EC50 [1]: 1000 to 10000 nM
- EC50 [2]: 1000 to 10000 nM
- Maximum % activity (with co-corrector) [3]: +++ (≥350)
- Emax (CSE-HRP, without co-corrector): > 200%

SMILES: COc1ccc(C(C)(C)C)cc1CN[C@H]1[C@H](C(C)(C)C)[C@@H](C(=O)O)N(C(=O)[C@H](C)c2ccccc2)[C@H]1c1ccccc1 [II-315]
- EC50 [1]: < 1000 nM
- EC50 [2]: < 1000 nM
- Maximum % activity (with co-corrector) [3]: +++ (≥350)
- Emax (CSE-HRP, without co-corrector): > 200%

SMILES: COc1ccc(C(C)(C)C)cc1CN[C@H]1[C@H](C(C)(C)C)[C@@H](C(=O)O)N(C(=O)C2CCN(C(=O)C3CC3)CC2)[C@H]1c1ccccc1 [II-316]
- Emax [4]: > 200%
- EC50 [5]: 1000 to 10000 nM
- Maximum % activity (with co-corrector) [6]: +++ (≥350)
- EC50 [7]: 1000 to 10000 nM

SMILES: COc1ccc(C(C)(C)C)cc1CN[C@H]1[C@H](C(C)(C)C)[C@@H](C(=O)O)N(C(=O)C2CCc3cccc(OC)c3C2)[C@H]1c1ccccc1 (stereo partly shown) [II-317]
- Emax [4]: > 200%
- EC50 [5]: < 1000 nM
- Maximum % activity (with co-corrector) [6]: +++ (≥350)
- EC50 [7]: < 1000 nM

SMILES: COc1ccc(C(C)(C)C)cc1CN[C@H]1[C@H](C(C)(C)C)[C@@H](C(=O)O)N(C(=O)C2CCCCO2)[C@H]1c1ccccc1 (stereo partly shown) [II-318]
- Emax [4]: > 200%
- EC50 [5]: 1000 to 10000 nM
- Maximum % activity (with co-corrector) [6]: +++ (≥350)
- EC50 [7]: 1000 to 10000 nM

SMILES: COc1ccc(C(C)(C)C)cc1CN[C@H]1[C@H](C(C)(C)C)[C@@H](C(=O)O)N(C(=O)C(C)Oc2cccc(C)c2C)[C@H]1c1ccccc1 (stereo partly shown) [II-323]
- Emax [4]: 100 to 200%
- EC50 [5]: 1000 to 10000 nM
- Maximum % activity (with co-corrector) [6]: +++ (≥350)
- EC50 [7]: < 1000 nM

SMILES: COc1ccc(C(C)(C)C)cc1CN[C@H]1[C@H](C(C)(C)C)[C@@H](C(=O)O)N(C(=O)C(C)Oc2ccccc2F)[C@H]1c1ccccc1 (stereo partly shown) [II-324]
- Emax [4]: > 200%
- EC50 [5]: 1000 to 10000 nM
- Maximum % activity (with co-corrector) [6]: +++ (≥350)
- EC50 [7]: < 1000 nM

SMILES: COc1ccc(C(C)(C)C)cc1CN[C@H]1[C@H](C(C)(C)C)[C@@H](C(=O)O)N(C(=O)C(C)Sc2ccccc2)[C@H]1c1ccccc1 (stereo partly shown) [II-325]
- Emax [4]: > 200%
- EC50 [5]: < 1000 nM
- Maximum % activity (with co-corrector) [6]: +++ (≥350)
- EC50 [7]: < 1000 nM

SMILES: COc1ccc(C(C)(C)C)cc1CN[C@H]1[C@H](C(C)(C)C)[C@@H](C(=O)O)N(C(=O)[C@@H](C)c2ccccc2)[C@H]1c1ccccc1 [II-326]
- Emax [4]: > 200%
- EC50 [5]: 1000 to 10000 nM
- Maximum % activity (with co-corrector) [6]: +++ (≥350)
- EC50 [7]: < 1000 nM

SMILES: COc1ccc(C(C)(C)C)cc1CN[C@H]1[C@H](C(C)(C)C)[C@@H](C(=O)O)N(C(=O)C2CC2(F)F)[C@H]1c1ccccc1 (stereo partly shown) [II-327]
- Emax [4]: 100 to 200%
- EC50 [5]: 1000 to 10000 nM
- Maximum % activity (with co-corrector) [6]: +++ (≥350)
- EC50 [7]: 1000 to 10000 nM

SMILES: COc1ccc(C(C)(C)C)cc1CN[C@H]1[C@H](C(C)(C)C)[C@@H](C(=O)O)N(C(=O)C2CC(C)(C)C2)[C@H]1c1ccccc1 [II-328]
- Emax [4]: > 200%
- EC50 [5]: 1000 to 10000 nM
- Maximum % activity (with co-corrector) [6]: +++ (≥350)
- EC50 [7]: 1000 to 10000 nM

SMILES: COc1ccc(C(C)(C)C)cc1CN[C@H]1[C@H](C(C)(C)C)[C@@H](C(=O)O)N(C(=O)C(C)Oc2cccc(Cl)c2)[C@H]1c1ccccc1 (stereo partly shown) [II-330]
- Emax [4]: > 200%
- EC50 [5]: 1000 to 10000 nM
- Maximum % activity (with co-corrector) [6]: +++ (≥350)
- EC50 [7]: < 1000 nM

SMILES: COc1ccc(C(C)(C)C)cc1CN[C@H]1[C@H](C(C)(C)C)[C@@H](C(=O)O)N(C(=O)C2CC2c2ccncc2)[C@H]1c1ccccc1 (stereo partly shown) [II-331]
- Emax [4]: 100 to 200%
- EC50 [5]: 1000 to 10000 nM
- Maximum % activity (with co-corrector) [6]: +++ (≥350)
- EC50 [7]: 1000 to 10000 nM

SMILES: COc1ccc(C(C)(C)C)cc1CN[C@H]1[C@H](C(C)(C)C)[C@@H](C(=O)O)N(C(=O)C2CCCC2)[C@H]1c1ccccc1 [II-332]
- Emax [4]: > 200%
- EC50 [5]: 1000 to 10000 nM
- Maximum % activity (with co-corrector) [6]: +++ (≥350)
- EC50 [7]: < 1000 nM

SMILES: COc1ccc(C(C)(C)C)cc1CN[C@H]1[C@H](C(C)(C)C)[C@@H](C(=O)O)N(C(=O)C2CC2)[C@H]1c1ccccc1 [II-333]
- Emax [4]: > 200%
- EC50 [5]: 1000 to 10000 nM
- Maximum % activity (with co-corrector) [6]: +++ (≥350)
- EC50 [7]: 1000 to 10000 nM

The remaining lines, values ahead:

- EC50 [1]: 1000 to 10000 nM
- EC50 [2]: < 1000 nM
- Maximum % activity (with co-corrector) [3]: +++ (≥350)
- Emax (CSE-HRP, without co-corrector): > 200%
SMILES: COc1ccc(C(C)(C)C)cc1CN[C@H]1[C@H](C(C)(C)C)[C@@H](C(=O)O)N(C(=O)C2Cc3ccccc3S2)[C@H]1c1ccccc1 (stereo partly shown) [II-314]

- Emax [4]: > 200%
- EC50 [5]: 1000 to 10000 nM
- Maximum % activity (with co-corrector) [6]: +++ (≥350)
- EC50 [7]: < 1000 nM
SMILES: COc1ccc(C(C)(C)C)cc1CN[C@H]1[C@H](C(C)(C)C)[C@@H](C(=O)O)N(C(=O)[C@H](C)Oc2ccccc2)[C@H]1c1ccccc1 [II-319]

- Emax [4]: > 200%
- EC50 [5]: 1000 to 10000 nM
- Maximum % activity (with co-corrector) [6]: +++ (≥350)
- EC50 [7]: < 1000 nM
SMILES: COc1ccc(C(C)(C)C)cc1CN[C@H]1[C@H](C(C)(C)C)[C@@H](C(=O)O)N(C(=O)C2CCc3cc(F)ccc3O2)[C@H]1c1ccccc1 (stereo partly shown) [II-320]

- Emax [4]: > 200%
- EC50 [5]: 1000 to 10000 nM
- Maximum % activity (with co-corrector) [6]: +++ (≥350)
- EC50 [7]: < 1000 nM
SMILES: COc1ccc(C(C)(C)C)cc1CN[C@H]1[C@H](C(C)(C)C)[C@@H](C(=O)O)N(C(=O)C2CC=CC2)[C@H]1c1ccccc1 [II-321]

- Emax [4]: 100 to 200%
- EC50 [5]: 1000 to 10000 nM
- Maximum % activity (with co-corrector) [6]: +++ (≥350)
- EC50 [7]: 1000 to 10000 nM
SMILES: COc1ccc(C(C)(C)C)cc1CN[C@H]1[C@H](C(C)(C)C)[C@@H](C(=O)O)N(C(=O)[C@H]2CCCO2)[C@H]1c1ccccc1 [II-322]

- Emax [4]: > 200%
- EC50 [5]: 1000 to 10000 nM
- Maximum % activity (with co-corrector) [6]: +++ (≥350)
- EC50 [7]: 1000 to 10000 nM
SMILES: CCC(CC)C(=O)N1[C@H](C(=O)O)[C@@H](C(C)(C)C)[C@H](NCc2cc(C(C)(C)C)ccc2OC)[C@@H]1c1ccccc1 [II-329]

- Emax [4]: > 200%
- EC50 [5]: 1000 to 10000 nM
- Maximum % activity (with co-corrector) [6]: +++ (≥350)
- EC50 [7]: 1000 to 10000 nM
SMILES: COc1ccc(C(C)(C)C)cc1CN[C@H]1[C@H](C(C)(C)C)[C@@H](C(=O)O)N(C(=O)C2CCC(F)(F)C2)[C@H]1c1ccccc1 (stereo partly shown) [II-334]

- Emax [4]: > 200%
- EC50 [5]: 1000 to 10000 nM
- Maximum % activity (with co-corrector) [6]: +++ (≥350)
- EC50 [7]: 1000 to 10000 nM
SMILES: COc1ccc(C(C)(C)C)cc1CN[C@H]1[C@H](C(C)(C)C)[C@@H](C(=O)O)N(C(=O)C2CC(F)C2)[C@H]1c1ccccc1 (stereo partly shown) [II-335]

- Emax [4]: 100 to 200%
- EC50 [5]: 1000 to 10000 nM
- Maximum % activity (with co-corrector) [6]: +++ (≥350)
- EC50 [7]: 1000 to 10000 nM
SMILES: COc1ccc(C(C)(C)C)cc1CN[C@H]1[C@H](C(C)(C)C)[C@@H](C(=O)O)N(C(=O)C2CC(F)(F)C2)[C@H]1c1ccccc1 [II-336]

- Emax [4]: > 200%
- EC50 [5]: < 1000 nM
- Maximum % activity (with co-corrector) [6]: +++ (≥350)
- EC50 [7]: < 1000 nM
SMILES: COc1ccc(C(C)(C)C)cc1CN[C@H]1[C@H](C(C)(C)C)[C@@H](C(=O)O)N(C(=O)C2CCc3ccccc32)[C@H]1c1ccccc1 (stereo partly shown) [II-337]

- Emax [4]: 100 to 200%
- EC50 [5]: 1000 to 10000 nM
- Maximum % activity (with co-corrector) [6]: +++ (≥350)
- EC50 [7]: 1000 to 10000 nM
SMILES: COc1ccc(C2CCOCC2)cc1CN[C@H]1[C@H](C(C)(C)C)[C@@H](C(=O)O)N(C(=O)C2CCCCC2)[C@H]1c1ccccc1 [II-340]
